Measured values published in patent US5952189A (priority 1997, dated 1999).
“And” between values parts separate entries of the source, which are not always exact repeats. Equal entries are not always repeated. “Also recorded” adds a separate entry of the source. Where two headings read alike, the source gives them in different places.

Columns and labels:
U937 cells = test: cells; type: cell-based, human
BT-20 = type: cell-based, human; conditions: for % DNA fragmentation: BT-20, UV 0.5 J/cm^2, 8 h, no inhibitor 44 ± 3.6
3T3 = test: Inhibition of UV-induced DNA fragmentation in 3T3 cells; type: cell-based, murine; conditions: UV 0.5 J/cm^2, 8 h, no inhibitor 38 ± 1.9
Procedure: To determine if these findings were unique to U937 or if other cell lines also require protease activity to undergo apoptosis, the effects of several inhibitors on apoptosis induced by UV light in the human mammary carcinoma, BT-20, the murine fibroblast cell line, 3T3, and the human myeloid leukemia, HL-60 were tested. For the BT-20 and 3T3 cells, target cells were pretreated for one hour (with or without inhibitors as indicated in the table) and exposed to UV light at 0.5 J/cm^2 and then incubated for eight hours prior to assessing DNA fragmentation. HL-60 cells were pretreated for one hour (with or without inhibitors as indicated in the table) and exposed to UV at 0.2 J/cm^2 and then incubated for two hours prior to assessing DNA fragmentation.
DNA fragmentation assays were carried out according to the protocol of Wright S. C., et al. (1,992) J. Cell. Biochem. 48, 344-355. Target cells were labeled with ^3 H-thymidine and plated in triplicate in flat bottom microtiter plates. Cells were incubated for the indicated length of time for each experiment in the presence of TNF or various inhibitors. In some experiments, cells were treated with UV light at 245 nm using a UV Crosslinker (Fisher Scientific). Assays were harvested and counted on a Packard matrix 96 beta counter. Percent DNA fragmentation was calculated as for the nuclear assay described in Example 3. In assays to test the effects of various inhibitors, the pH of extra wells containing assay buffer, target cells, and each inhibitor was always checked at the beginning and end of each assay to assure that the pH remained at 7.5.

isolated U937 nuclei = test: DNA fragmentation assay using isolated U937 nuclei; type: cell-based, human; conditions: inhibitor 50 μM (FIG. 6B)
Procedure: U937 cells were labeled with ^3 H-thymidine by culturing overnight with isotope at 0.5 μCi/ml. The cells were pelleted, washed once, and the cytoplasmic membrane lysed by resuspending the cells in assay buffer (50 mM Tris, 250 mM sucrose 10 mM MgSO4, pH 7.5) plus 0.02% NP-40. Nuclei were then pelleted and resuspended in assay buffer at 1×10^6 /ml. The assay was set up in triplicate in flat bottom microtiter plates under sterile conditions. Nuclei (0.05 ml) were mixed with 0.05 ml of sample diluted in 50 mM Tris pH 7.5 or buffer alone to determine total counts. Plates were incubated for 5 h at 37° C. and then harvested by the addition of 0.1 ml of harvesting buffer (10 mM Tris, 10 mM EDTA, 0.3% Triton X-100, pH 7.5). Plates were harvested by filtration onto glass fiber paper and counted on a Packard Matrix 96 beta counter. Percent DNA fragmentation was calculated as follows: […]

[1] = system: TNF-induced hepatocyte apoptosis; test: TNF-induced hepatotoxicity in mice (serum transaminases); type: in vivo, Balb/c mice; conditions: for AST: without DK120 78
Procedure: In this example the concept that a protease inhibitor such as DK120 may attenuate inappropriate apoptosis that causes tissue damage in systemic inflammatory response syndrome (SIRS) was tested. TNF-induced hepatocyte apoptosis in mice was performed as described by Leist et al. ((1995) J. Immunol. 154:1778-1786). Briefly, Balb/c mice were injected ip with […] murine TNF combined with […] Actinomycin D/mouse. Twelve h later, mice were anesthetized and bled from the heart to measure serum transaminase levels, which are standard clinically used indicators of liver damage. Mice that were treated with protease inhibitors were injected ip with these compounds 30 min. prior to TNF. Alanine aminotransferase (ALT) and aspartate aminotransferase (AST) were assayed using a commercially available kit (Sigma). […] However, treatment with DK120 caused a doss-dependent decrease in serum transaminase levels. […] However, a drug that nonspecifically blocks all apoptotic pathways that normally function to maintain homeostasis may not be clinically desirable. Subsequent studies were performed to determine if DK120 could also suppress hepatocyte apoptosis in response to a different stimulus.
^1 Mice (2 for each treatment) were injected ip +/- DK120 30 min prio
to TNF and Actinomycin D. Twelve h later serum transaminase levels were
To further explore the specificity of DK120 attenuation of TNF-induced hepatotoxicity, several compounds were tested that were found previously not to inhibit apoptotic protease proteolytic activity as measured against a synthetic substrate (data not shown). […] Therefore, the protection mediated by DK120 is not a property of any boron-containing molecule.
^1 Mice (3 for each treatment) were injected ip +/- the inhibitors 30
min prior to TNF and Actinomycin D. Twelve h later serum transaminase

[2] = system: SEB-induced hepatotoxicity; type: in vivo, mice; conditions: Gln + SEB + DK120 5 mg/kg
mice = test: Toxicity of DK120 in mice on daily injection; type: in vivo
Procedure: In preliminary studies daily injection of mice with DK120 at 20 mg/kg was lethal. The reason for toxicity is not clear but may be related to the ability of DK120 to inhibit chymotrypsin-like enzymes that may be essential for the normal function of various tissues.

[3] = system: LPS-induced hepatotoxicity
[4] = system: chymotrypsin-like enzymes; conditions: cited from earlier work

For `C[C@H](NC(=O)OCc1ccccc1)C(=O)N[C@@H](C)C(=O)NC(Cc1ccccc1)B(O)O` (stereo partly shown) [DK120, carbobenzoxy-ala-ala-borophe], the IC50 (U937 cells; Homo sapiens, U-937, read-out: IC50 (Active Concentration), TNF and UV-light induced apoptosis) was 1.2 µM, the “Concentration of maximum suppression of DNA fragmentation” value (U937 cells; U937, TNF 1.0 ng/ml plus cycloheximide or UV 0.1 J/cm^2, 1 h pretreatment (FIG. 1)) was 2.0 µM and the “Effect on DNA fragmentation induced by TNF or UV light” value (U937 cells; U937 cells, result in words) was “suppressed DNA fragmentation; also recorded: dose-dependently inhibit DNA fragmentation”. For the same molecule, the “% DNA fragmentation” value (BT-20; inhibitor 0.2 μM) was 5 ± 8.7%, the “% DNA fragmentation” value (BT-20; inhibitor 1 μM) was 0% and the “% DNA fragmentation” value (BT-20; inhibitor 5 μM) was 0%. The “Effect on UV-induced DNA fragmentation” value (BT-20; summary of Table 2 (BT-20, 3T3, HL-60)) was “effectively blocked DNA fragmentation”, the “% DNA fragmentation” value (3T3; inhibitor 1 μM) was 24 ± 0.3% and the “% DNA fragmentation” value (3T3; inhibitor 5 μM) was 19 ± 1.9%. The “Inhibition of nuclear DNA fragmenting activity of protease from UV-treated cells” value (isolated U937 nuclei) was “inhibited”, the AST ([1]; Table 7, DK120 1 mg/kg ip 30 min prior to Actinomycin D + TNF, 12 h) was 64 U/ml and the ALT ([1]; Table 7, DK120 1 mg/kg ip 30 min prior to Actinomycin D + TNF, 12 h, without DK120 398) was 232 U/ml. It also gave an AST ([1]; Table 7, DK120 2.5 mg/kg ip 30 min prior to Actinomycin D + TNF, 12 h) of 47 U/ml, an ALT ([1]; Table 7, DK120 2.5 mg/kg ip 30 min prior to Actinomycin D + TNF, 12 h, without DK120 398) of 145 U/ml and an ALT ([1]; Table 7, DK120 5 mg/kg ip 30 min prior to Actinomycin D + TNF, 12 h, without DK120 398) of 123 U/ml. The AST ([1]; Table 7, DK120 10 mg/kg ip 30 min prior to Actinomycin D + TNF, 12 h) was 56 U/ml, the ALT ([1]; Table 7, DK120 10 mg/kg ip 30 min prior to Actinomycin D + TNF, 12 h, without DK120 398) was 50 U/ml and the “Protection from TNF-induced hepatotoxicity” value ([1]; Table 10, 10 mg/kg) was “reduced levels of ALT to close to that of Actinomycin D alone”. The “Effect on TNF-induced serum transaminase levels” value ([1]; ip 30 min prior to TNF) was “reduced transaminase to levels very close to those seen in mice injected with Actinomycin D only”, the ALT ([1]; mouse, in vivo) was 190 +/- 21 U/ml and 141 +/- 20 U/ml and the “% Mortality” value ([2]; without DK120 33) was 0%. For the same molecule, the AST ([2]; without DK120 119) was 72 +/- 13 U/ml, the ALT ([2]; without DK120 339) was 205 +/- 28 U/ml and the Lethality (mice; daily injection, 20 mg/kg, preliminary studies) was “lethal”. The “Toxicity of compound alone” value (mice; mouse, in vivo) was “relatively toxic”, the “% Mortality” value ([3]; Gln + LPS + DK120 5 mg/kg, without DK120 33) was 0% and the AST ([3]; Gln + LPS + DK120 5 mg/kg, without DK120 100) was 79 +/- 10 U/ml. The ALT ([3]; Gln + LPS + DK120 5 mg/kg, without DK120 334) was 182 +/- 17 U/ml, the “Effect on serum transaminase levels after LPS or SEB” value ([3]; LPS or SEB plus Gln, DK120 30 min prior) was “significant reduction in the serum transaminase levels” and the “Effect on LPS-induced mortality, long term survival (FIG. 9)” value ([3]; mouse, in vivo) was “could delay or prevent LPS-induced mortality”. For the same molecule, the “Inhibition of chymotrypsin / chymotrypsin-like enzymes” value [4] was “reversible inhibitor of chymotrypsin; also recorded: potently inhibits chymotrypsin-like enzymes”.
